Assay: log P determination by HPLC on reverse-phase column (EEC Directive 79/831 Annex V.A8)
Type: physicochemical
Details: not given
How it was run: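 Reverse-phase C18 HPLC at 43 °C, following EEC Directive 79/831 Annex V.A8. Acidic LC-MS used pH 2.7 eluents (0.1% aqueous formic acid and acetonitrile with 0.1% formic acid) on a 10–95% acetonitrile linear gradient. Log P was interpolated linearly from retention times against unbranched C3–C16 alkan-2-ones of known log P.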

In order of rising logP:
1. N#CCNC(=O)c1cc(Cl)cc(Cl)c1NC(=O)c1cc(Cc2cncnc2)nn1-c1ncccc1Cl [I-1-320]  1.49
2. CNC(=O)c1cc(C#N)cc(C)c1NC(=O)c1cc(Cn2cnc(C(F)(F)C(F)(F)F)n2)nn1-c1ncccc1Cl [I-1-352]  1.91
3. CNC(=O)c1cc(Cl)cc(C)c1NC(=O)c1cc(Cn2cnc(SC)n2)nn1-c1ncccc1Cl [I-1-265]  1.94
4. CNC(=O)c1cc(Cl)cc(Cl)c1NC(=O)c1cc(Cc2c(C)noc2C)nn1-c1ncccc1Cl [I-1-322]  1.94
5. Cc1cc(C#N)cc(C(=O)NCC#N)c1NC(=O)c1cc(Cn2cnc(C(F)(F)C(F)(F)F)n2)nn1-c1ncccc1Cl [I-1-351]  1.96
6. Cc1cc(C#N)cc(C(=O)NC2CC2)c1NC(=O)c1cc(Cn2cnc(C(F)(F)C(F)(F)F)n2)nn1-c1ncccc1Cl [I-1-353]  2.08
7. CNC(=O)c1cc(Cl)cc(Cl)c1NC(=O)c1cc(Cc2ccoc2)nn1-c1ncccc1Cl [I-1-306]  2.18
8. CNC(=O)c1cc(Cl)cc(C)c1NC(=O)c1cc(Cn2cnc(C(C)(C)C)n2)nn1-c1ncccc1Cl [I-1-160]  2.39
9. Cc1cc(C#N)cc(C(=O)NC2CC2)c1NC(=O)c1cc(Cn2ccc(C(F)(F)F)n2)nn1-c1ncccc1Cl [I-1-183]  2.75
10. Cc1cc(Cl)cc(C(=O)NC(CN2CCCCC2)C2CC2)c1NC(=O)c1cc(Cn2cc(Cl)c(C(F)(F)C(F)(F)F)n2)nn1-c1ncccc1Cl (centres unmarked) [I-1-214]  2.77
11. O=C(NC1CC1)c1cc(Cl)cc(Cl)c1NC(=O)c1cc(Cn2nc(C(F)(F)F)nc2C(F)(F)F)nn1-c1ncccc1Cl [I-1-295]  2.95
12. CNC(=O)c1cc(Cl)cc(Cl)c1NC(=O)c1cc(Cn2nc(C(F)F)c([N+](=O)[O-])c2C(F)F)nn1-c1ncccc1Cl [I-1-266]  2.99
13. CNC(=O)c1cc(Cl)cc(C)c1NC(=O)c1cc(Cn2cnc(-c3ccc(Cl)cc3)n2)nn1-c1ncccc1Cl [I-1-153]  3.07
14. CNC(=O)c1cc(Cl)cc(C)c1NC(=O)c1cc(Cn2nnnc2-c2ccc(C(F)(F)F)cc2)nn1-c1ncccc1Cl [I-1-163]  3.15
15. CNC(=O)c1cc(I)cc(C)c1NC(=O)c1cc(Cn2nc(C(F)F)c([N+](=O)[O-])c2C(F)F)nn1-c1ncccc1Cl [I-1-278]  3.25
16. Cc1cc(I)cc(C(=O)NC2CC2)c1NC(=O)c1cc(Cn2ccc(C(F)(F)F)n2)nn1-c1ncccc1Cl [I-1-249]  3.27
17. CNC(=O)c1cc(F)cc(C)c1NC(=O)c1cc(Cn2nc(C(F)(F)F)cc2C(F)(F)F)nn1-c1ncccc1Cl [I-1-221]  3.32
18. Cc1cc(I)cc(C(=O)NC2CC2)c1NC(=O)c1cc(Cn2nc(C(F)F)c([N+](=O)[O-])c2C(F)F)nn1-c1ncccc1Cl [I-1-268]  3.44
19. C[C@@H](C[S+](C)[O-])NC(=O)c1cc(Cl)cc(Cl)c1NC(=O)c1cc(Cn2cc(C(F)(F)C(F)(F)F)c(C(F)(F)C(F)(F)F)n2)nn1-c1ncccc1Cl (some centres unmarked) [I-1-325]  3.54
20. CC(C)NC(=O)c1cc(Cl)cc(Cl)c1NC(=O)c1cc(Cn2nc(C(F)(F)F)nc2C(F)(F)F)nn1-c1ncccc1Cl [I-1-291]  3.76
21. CSC[C@H](C)NC(=O)c1cc(Cl)cc(C)c1NC(=O)c1cc(Cn2cnc(-c3ccc(Cl)nc3)n2)nn1-c1ncccc1Cl [I-1-159]  3.78
22. CNC(=O)c1cc(I)cc(C)c1NC(=O)c1cc(Cn2nc(C(F)(F)F)cc2C(F)(F)F)nn1-c1ncccc1Cl [I-1-227]  3.87
23. Cc1cc(C#N)cc(C(=O)NCc2ccco2)c1NC(=O)c1cc(Cn2cc(Cl)c(C(F)(F)C(F)(F)F)n2)nn1-c1ncccc1Cl [I-1-208]  3.90
24. CCNC(=O)c1cc(I)cc(C)c1NC(=O)c1cc(Cn2nc(C(F)(F)F)cc2C(F)(F)F)nn1-c1ncccc1Cl [I-1-228]  4.06
25. CCNC(=O)c1cc(I)cc(C)c1NC(=O)c1cc(Cn2cc(Cl)c(C(F)(F)C(F)(F)F)n2)nn1-c1ncccc1Cl [I-1-277]  4.17
26. Cc1cc(I)cc(C(=O)NC(C)C)c1NC(=O)c1cc(Cn2nc(C(F)(F)F)cc2C(F)(F)F)nn1-c1ncccc1Cl [I-1-230]  4.29
27. CCCNC(=O)c1cc(I)cc(C)c1NC(=O)c1cc(Cn2nc(C(F)(F)F)cc2C(F)(F)F)nn1-c1ncccc1Cl [I-1-229]  4.33
28. Cc1cc(I)cc(C(=O)NC2CCCC2)c1NC(=O)c1cc(Cn2nc(C(F)(F)F)nc2C(F)(F)F)nn1-c1ncccc1Cl [I-1-279]  4.47
29. Cc1cc(I)cc(C(=O)NCC(F)(F)F)c1NC(=O)c1cc(Cn2nc(C(F)(F)F)cc2C(F)(F)F)nn1-c1ncccc1Cl [I-1-232]  5.28

Same assay, conditions: HPLC on reverse-phase column

In order of falling logP:
1. Cc1cc(Br)cc(C(N)=O)c1NC(=O)c1cc(Cn2cc(C(F)(F)C(F)(F)F)c(C(F)(F)C(F)(F)F)n2)nn1-c1ncccc1Cl [I-1-53]  4.17
2. Cc1cc(Cl)cc(C(=O)NC(C)C)c1NC(=O)c1cc(Cn2nnc(-c3ccc(C(F)(F)F)cc3)n2)nn1-c1ncccc1Cl [I-1-105]  4.14
3. CNC(=O)c1cc(Br)cc(C)c1NC(=O)c1cc(Cn2cc(Cl)c(C(F)(F)C(F)(F)F)n2)nn1-c1ncccc1Cl [I-1-70]  3.94
4. Cc1cc(Br)cc(C(=O)NCC#N)c1NC(=O)c1cc(Cn2cc(Cl)c(C(F)(F)C(F)(F)F)n2)nn1-c1ncccc1Cl [I-1-73]  3.87
5. Cc1cc(Cl)cc(C(N)=O)c1NC(=O)c1cc(Cn2nnn(-c3cc(C(F)(F)F)cc(C(F)(F)F)c3)c2=O)nn1-c1ncccc1Cl [I-1-94]  3.85
6. CNC(=O)c1cc(Cl)cc(C)c1NC(=O)c1cc(Cn2nnc(-c3ccc(Br)cc3)n2)nn1-c1ncccc1Cl [I-1-150]  3.70
7. Cc1cc(Br)cc(C(=O)NC2CC2)c1NC(=O)c1cc(Cn2cc(Br)c(C(F)(F)F)n2)nn1-c1ncccc1Cl [I-1-93]  3.69
8. Cc1cc(Br)cc(C(=O)NC2CC2)c1NC(=O)c1cc(Cn2nc(C(F)(F)F)nc2C(F)(F)F)nn1-c1ncccc1Cl [I-1-57]  3.67
9. Cc1cc(Cl)cc(C(=O)NCC#N)c1NC(=O)c1cc(Cn2nc(C(F)(F)F)nc2C(F)(F)F)nn1-c1ncccc1Cl [I-1-79]  3.62
10. Cc1cc(Cl)cc(C(=O)NC2CC2)c1NC(=O)c1cc(Cn2nc(C(F)(F)F)nc2C(F)(F)F)nn1-c1ncccc1Cl [I-1-54]  3.61
11. Cc1cc(Br)cc(C(=O)NCC#N)c1NC(=O)c1cc(Cn2nc(C(F)(F)F)nc2C(F)(F)F)nn1-c1ncccc1Cl [I-1-56]  3.44
12. Cc1cc(Br)cc(C(N)=O)c1NC(=O)c1cc(Cn2cc(Br)c(C(F)(F)F)n2)nn1-c1ncccc1Cl [I-1-100]  3.24
13. Cc1cccc(C(=O)N[C@@H](C)CS(C)(=O)=O)c1NC(=O)c1cc(Cn2nc(C(F)(F)F)nc2C(F)(F)F)nn1-c1ncccc1Cl [I-1-87]  2.92
14. Cc1cc(Cl)cc(C(=O)NC(C)C)c1NC(=O)c1cc(Cn2cnc(C(F)(F)F)c2)nn1-c1ncccc1Cl [I-1-133]  2.77
15. Cc1cc(Br)cc(C(N)=O)c1NC(=O)c1cc(Cn2ccc(C(F)(F)F)n2)nn1-c1ncccc1Cl [I-1-83]  2.75
16. CNC(=O)c1cc(Cl)cc(C)c1NC(=O)c1cc(Cn2nc(C(F)(F)F)n(C)c2=O)nn1-c1ncccc1Cl [I-1-116]  2.44

Same assay, conditions: HPLC, reverse-phase column (C 18), 43° C., acidic range pH 2.7

In order of rising logP:
1. CNC(=O)c1cc(Cl)cc(Cl)c1NC(=O)c1cc(Cn2nc(C(F)(F)F)nc2C(F)(F)F)nn1C1CCOC1 (centres unmarked) [I-2-6]  2.99
2. CNC(=O)c1cc(Cl)cc(Cl)c1NC(=O)c1cc(Cn2nc(C(F)(F)F)nc2C(F)(F)F)nn1C(C)C [I-2-3]  3.31

Source: US8101550B2, “Anthranilic acid diamide derivative with hetero-aromatic and hetero-cyclic substituents” (Bayer Cropscience AG, priority 2006, dated 2012)
